System: Atm−/− mice
Assay: Modified rotarod behavioral test
Type: in vivo, mouse
Conditions: P90, after treatment, vs PBS-treated Atm−/− and Atm+/+
Text: The Atm−/− mice were originally generated by Dr. C. Barlow (Barlow et al., 1996). They were purchased from the Jackson Laboratory (Bar Harbor, Me.). Offspring of Atm+/− breeders were genotyped using real-time polymerase chain reaction-based assays of mouse tail DNA. Atm mice (1-month old) were divided into 3 groups: PBS-treated Atm+/+ mice (n=10/group); PBS-treated Atm−/− mice (n=9/group); and SB203580 (4-[5-(4-Fluorophenyl)-2-[4-(methylsulphonyl)phenyl]-1H-imidazol-4-yl]pyridine) treated Atm−/− mice (n=10/group). Mice were intraperitoneally injected with either PBS or SB203580 (4-[5-(4-Fluorophenyl)-2-[4-(methylsulphonyl)phenyl]-1H-imidazol-4-yl]pyridine) (5 mg/kg body weight) at 2-day intervals for 2 months. Animals were sacrificed one day after the last administration. Animal care was in accordance with The University of Texas MD Anderson Cancer Center guidelines for animal experiments.
We have devised a modified version of the standardized rotarod protocol (Columbus Instruments, Columbus, Ohio). […] Following training, three trials of mouse motor coordination were assessed by measuring the time before falling off the rotarod moving at 25 rpm.
Each experiment, including behavioral test, body weight measure and qRT-PCR was repeated at least three times. The proportion of mRNA expression was analyzed from a series of tissue sections. […]

SMILES | rotarod performance (time before falling off at 25 rpm)
CC1(C)c2ccc(C(=O)O)cc2C(C)(C)N1[O] [CTMIO, 5-carboxy-1,1,3,3-tetramethylisoindolin-2-yloxyl] | stayed on the rod as long as did Atm+/+ mice
CC(=O)N[C@@H](CS)C(=O)O [NAC, N-acetyl-L-cysteine] | stayed on the rod as long as did Atm+/+ mice
